Test results reported in paper PMC7248252, “Accumulation of TB-Active Compounds in Murine Organs Relevant to Infection by Mycobacterium tuberculosis” (Frontiers in Pharmacology, 2020).
≈ marks a conversion by molar mass, not a printed value.

Tests used:
[1] = 25 mg/kg, healthy murine lung tissue; ref Irwin et al., 2016; cited from earlier work
[2] = in vivo, po, 10 mg/kg
[3] = mouse, tissue homogenate
[4] = test system: Mycobacterium tuberculosis; conditions: determined in different experiments, reference not given; cited from earlier work
[5] = Unbound tissue concentrations (tissue binding by ultracentrifugation of spiked organ homogenate); conditions: 1 μg/ml, 4 h, 37°C
[6] = set-up: method as in Ishida et al., 1999; conditions: 120 mg/kg, Streptococcus pneumoniae-infected mouse model; ref Ishida et al., 1999; cited from earlier work

SMILES | Cmax (highest concentration) lung tissue ([2]; mouse) | estimated organ free fraction concentration compared with MIC90 ([2]; mouse) | unbound fractions [3] | MIC90 [4] | Ratio bound ([5]; Blood) | Ratio bound ([5]; Brain) | Ratio bound ([5]; Heart) | Ratio bound ([5]; Kidney) | Ratio bound ([5]; Liver) | Ratio bound ([5]; Lung) | Ratio bound ([5]; Spleen) | maximal lung concentration [6] | also measured
COc1nc2ccc(Br)cc2cc1[C@@H](c1ccccc1)[C@@](O)(CCN(C)C)c1cccc2ccccc12 [bedaquiline] | – | – | – | – | – | – | – | – | – | – | – | – | Cmax lung tissue [1]: 24 µM
CCCCCCCCCOc1cc2c(=O)c(C(=O)NCCOCCO)cn(CC)c2cc1OCC [RMB041] | 3.2 nmol/mg | below the MIC90 values | 0.18-0.01 | 1.61 µM (≈ 0.79 µg/mL) | 0.82 | 0.98 | 0.97 | 0.97 | 0.91 | 0.93 | 0.92 | – | –
C[C@H]1COc2c(N3CCN(C)CC3)c(F)cc3c(=O)c(C(=O)O)cn1c23 [LVX] | – | – | – | – | – | – | – | – | – | – | – | 5.95 µg/g | –
O=C(O)c1cn(C2CC2)c2cc(N3CCNCC3)c(F)cc2c1=O [ciprofloxacin] | – | – | – | – | – | – | – | – | – | – | – | 1.10 µg/g | –
CC1(C)S[C@@H]2[C@H](NC(=O)[C@H](N)c3ccccc3)C(=O)N2[C@H]1C(=O)O [ampicillin] | – | – | – | – | – | – | – | – | – | – | – | 1.71 µg/g | –
CCN(CC)c1ccc2nc3c4ccccc4c(=Nc4ccccc4)cc-3oc2c1 [PhX1] | 22.4 ± 2.35 nmol/mg | below the MIC90 values | 0.18-0.01 | 0.196 µM (≈ 0.0771 µg/mL) | 0.88 | 0.98 | 0.98 | 0.97 | 0.99 | 0.97 | 0.94 | – | AUC lung tissue ([2]; male, C57BL/6, mouse): 9669 ± 120.2 min/nmol/mg; AUC heart tissue ([2]; mouse): 12450 ± 45.2 min/nmol/mg; Cmax heart tissue ([2]; mouse): 8.83 ± 3.16 nmol/mg
